Reference: patent US7211402B2, “Transcription factor coactivator protein, p/CIP” (The Regents of the University of California, priority 1997, dated 2007)
“Also recorded” adds a separate entry of the source.

Tests used:
[1] = system: STAT-dependent (interferon γ-dependent) transcription; assay: Single cell microinjection assay, interferon γ-dependent GAS/LacZ reporter; type: cell-based, rat; conditions: for effect on interferon γ-dependent (STAT) gene activation: microinjection into Rat-1 cells, GAS/LacZ reporter
Procedure: (§1) Insulin-responsive Rat-1 fibroblasts were seeded on acid washed glass coverslips at subconfluent density and grown in MNE/F12 medium supplemented with 10% fetal bovine serum, gentamicin and methotrexate. Prior to the injection, the cells were rendered quiescent by incubation in serum-free medium for 24–36 hr. Plasmids were injected into the nuclei of cells at a final concentration of […]. Peptides were injected at a concentration of 200 mM. Either preimmune IgG of the appropriate species or antibodies directed against p/CIP, NCoA-1 or NCoA-2 were co-injected and allowed the unambiguous identification of the injected cells.
(§2) Microinjections were carried out using an Eppendorf semiautomated microinjection system mounted on an inverted Zeiss microscope. Approximately 1 hr after injection, the cells were stimulated, where indicated, with the appropriate ligand. In the case of rescue experiments, the cells were stimulated with ligand 6 hr after injection, to allow protein expression. After overnight incubation, the cells were fixed, then stained to detect injected IgG and β-galactosidase expression (Rose et al., J. Cell. Biol. 119:1405–1411 (1992), which is incorporated herein by reference; Kamei et al., supra, 1996). Injected cells were identified by staining with tetramethylrhodamine-conjugated donkey anti-rabbit IgG.

[2] = system: RAR-dependent transcription; assay: Single cell microinjection assay, retinoic acid-dependent RARE/LacZ reporter; type: cell-based, rat; conditions: for effect on retinoic acid-dependent gene activation by RAR: microinjection into Rat-1 cells
Procedure: as §1, §2

[3] = target: T1, liganded RAR and NCoA-1 (Homo sapiens, UniProt P10276); assay: In vitro competition assay, GST-RAR interaction with in vitro translated NCoA-1; type: binding; conditions: excess peptide; 35S-labeled NCoA interaction domain fragment (aa 635–760); TTNPB 1 μM
T1 construct: GST-RAR (143–462), GST-ER(251–595) and GST-CBP(2058–2170) were generated as described; made in house; NCoA-1 was made by in vitro translation
T1 sequence (P10276 143-462): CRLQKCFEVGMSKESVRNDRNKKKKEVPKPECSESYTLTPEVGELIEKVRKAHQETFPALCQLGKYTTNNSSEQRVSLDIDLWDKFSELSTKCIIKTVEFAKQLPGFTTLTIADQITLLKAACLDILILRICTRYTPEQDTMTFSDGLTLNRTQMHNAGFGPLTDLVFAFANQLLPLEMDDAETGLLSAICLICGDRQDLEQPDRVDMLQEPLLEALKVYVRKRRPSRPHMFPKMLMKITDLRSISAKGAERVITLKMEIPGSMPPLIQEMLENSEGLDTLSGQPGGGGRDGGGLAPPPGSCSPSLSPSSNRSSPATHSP
Procedure: GST-RAR (143–462), GST-ER(251–595) and GST-CBP(2058–2170) were generated as described (Kamei et al., supra, 1996). 25 ul of GST SEPHAROSE beads containing 10 ug of the GST recombinant proteins were incubated in the presence or absence of the appropriate ligand for 30 min at room temperature, followed by the addition of 1 mg of cell extract and incubated for an additional 1 hr at 4° C. The complexes were then centrifuged, washed three times in NET-N buffer, separated by SDS-PAGE and western blotted with the appropriate antibodies (1 ug/ml). For co-immunoprecipitation assays, 1 mg of cell extract was incubated in the presence of 2 ug of p/CIP or NCoA antibody for 2 hr at 4° C. The immune complexes were precipitated with protein A SEPHAROSE (50% w/v). Protein complexes were separated by SDS-PAGE (Laemmle, Nature 227:680–685 (1970), which is incorporated herein by reference) and western blotted using 1 ug/ml of an anti-CBP/P300 monoclonal antibody (UBI). For in vitro competition assays, the indicated peptides were incubated with in vitro translated NCoA-1 prior to GST interaction with RAR.

[4] = system: TPA-dependent transcriptional activation; assay: Single cell microinjection assay, TPA-dependent reporter; type: cell-based; conditions: microinjection into Rat-1 cells
Procedure: as §1, §2

[5] = system: SP-1 or CMV dependent transcription; assay: Single cell microinjection assay, control promoters lacking nuclear receptor response elements; type: cell-based; conditions: microinjection into Rat-1 cells
Procedure: as §1, §2

[6] = target: T2, estrogen receptor ligand binding domain (yeast two-hybrid bait, liganded) (UniProt P03372 251-595); assay: yeast two-hybrid
T2 construct: Tested with estradiol (10^-6 M); also called liganded estrogen receptor (LBD); ER
T2 sequence (looked up): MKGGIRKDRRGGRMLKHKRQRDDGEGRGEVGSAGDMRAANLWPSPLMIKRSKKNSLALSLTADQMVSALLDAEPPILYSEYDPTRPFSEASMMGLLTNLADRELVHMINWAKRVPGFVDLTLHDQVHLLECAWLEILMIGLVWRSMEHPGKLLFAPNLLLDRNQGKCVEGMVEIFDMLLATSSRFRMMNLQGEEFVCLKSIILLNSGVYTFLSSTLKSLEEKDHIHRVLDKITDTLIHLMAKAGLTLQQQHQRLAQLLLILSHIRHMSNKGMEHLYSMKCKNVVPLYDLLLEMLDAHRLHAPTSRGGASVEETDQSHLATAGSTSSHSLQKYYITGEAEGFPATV
From the text: EGY 48 cells were transformed with the lac Z reporter plasmid pSH 18–34 with the appropriate bait and prey vectors and plated out on -Ura-His-Trp medium containing 2% galactose.

[7] = simultaneous retinoic acid and interferon γ

LCD4: 19-mer peptide corresponding to NCoA-1 LCD4 (aa 907–926)
effect on interferon γ-dependent (STAT) gene activation [1]: does not impair
effect on retinoic acid-dependent gene activation by RAR [2]: can block
effect on retinoic acid-dependent gene activation by RAR ([2]; listed as NCoA-1 LCD4): inhibits

CBP N′-P1: synthetic peptide of the N-terminal 22 amino acids of CBP; CBP N′-P1 (aa 1–19) (MAENLLDGPPNPKRAKLSS)
effect on interferon γ-dependent (STAT) gene activation [1]: markedly inhibited
effect on retinoic acid dependent inhibition of the GAS/LacZ reporter [1, 7]: had no effect
effect on retinoic acid-dependent gene activation by RAR [2]: without effect
effect on interferon γ inhibition of RAR-dependent transcription [2, 7]: relieved inhibition; also recorded: fully abolished

LCD 1: peptide corresponding to LCD 1 of NCoA-1; NCoA-1 LCD1 (aa 631–647) (SQTSHKLVQLLTTTAEQ; UniProt P70365 631-647, looked up, fragment)
inhibition of interaction between liganded RAR and NCoA-1 in vitro [3]: less effective

B1: p/CIP (aa 947–1084): 137 amino acid region of p/CIP (aa 947–1084) containing the core CBP interaction domain (protein, UniProt O09000 947-1084, looked up, fragment)
chain: VPTLPLRSNRLPGARPSLQQQQQQQQQQQQQQQQQQQQQQQMLQMRTGEIPMGMGVNPYSPAVQSNQPGSWPEGMLSMEQGPHGSQNRPLLRNSLDDLLGPPSNAEGQSDERALLDQLHTFLSNTDATGLEEIDRALG
effect on interferon γ-dependent (STAT) gene activation [1]: blocked
effect on retinoic acid-dependent gene activation by RAR [2]: completely inhibited
effect on retinoic acid-dependent gene activation by RAR ([2]; listed as amino acids 947 to 1084 of p/CIP): inhibits
effect on TPA-dependent transcriptional activation [4]: blocked
effect on SP-1 / CMV control promoters (non-CBP-dependent) [5]: did not block

B2: NCoA-1 (aa 635-760) with LCD2 mutation (amino acids 695 to 698, HRLL->AAAA), yeast two-hybrid prey (other, UniProt P70365 635-760, looked up)
chain: HKLVQLLTTTAEQQLRHADIDTSCKDVLSCTGTSSSASSNPSGGTCPSSHSSLTERHKILAAAAQEGSPSDITTLSVEPEKKDSVPASTAVSVSGQSQGSASIKLELDAAKKKESKDHQLLRYLLD
notes: also called Mutations of the LCD2 motif (RLHRLL->RLAAAA); not shown: B42 fusion partner of prey vector pJG 4-5
binding result [6]: no binding
